{"source": "patent US20220184072A1", "about": "(priority 2019, published 2022)", "type_in_all_cases": "in vivo", "key": {"STZ-diabetic rats": {"tested_on": "STZ-diabetic rats", "test": "STZ-rat model, cold allodynia response", "procedure": "The compound of Example 1 is also tested in an STZ-rat model of neuropathic pain. Briefly, adult female rats are made diabetic by treatment with streptozotocin (STZ), an alkylating neoplastic agent which is particularly toxic to the insulin-producing beta cells of the pancreas. The resulting type-I diabetes in the rats leads to the development of diabetic neuropathy over a 3 to 6-week period. […] Once diabetic neuropathy has been induced, the rats may be treated to determine the analgesic effect of compounds.\nPaw cold response threshold is a clinical assessment of cold pain perception. A rigid filament with a thermoelectric cooling system is used to stimulate the plantar surface of the hind paw for 5 seconds. The stimulus is repeated ten times at 2 to 5-minute intervals. The number of paw withdrawal responses is recorded and converted to a response frequent figure (%). This procedure is repeated at a variety of temperatures. […] At a stimulus temperature of 20° C. or 15° C., the response frequency is found to be substantially the same between STZ-treated rats and control rats (from about 10-20% response). In contrast, at a stimulus temperature of 10° C. or below, there is a substantial divergence of frequency response. In control rats, a stimulus temperature of 10° C. results in about 10% response frequency, while at 5° C., this increases to about 40% response frequency. In contrast, STZ-treated rats show a response frequency of about 60% at 10° C., and about 80% at 5° C. […] A stable cold allodynia response is observed 4-12 weeks after induction of diabetes.\nThe cold allodynia response test is performed at 0 hours, 1 hour, 2 hours, 4 hours and 6 hours, as described above, using a 10° C. stimulus temperature. The injection vehicle is pure polyethylene glycol-400 (PEG400)."}, "ZFD rats [1]": {"tested_on": "ZFD rats", "test": "ZFD rat model, paw cold response", "procedure": "Forty (40) adult, male […] rats weighing 225-275 g at the start of the study are used in these experiments, including ten (10) lean, controls and thirty (30) ZFD rats. Animals are maintained in the vivarium at a controlled room temperature between 65 to 85° F. and a relative humidity between 30-70% under illumination by fluorescent lighting on a daily 12-hour light/dark cycle. All animals are maintained 2 per cage with free access to dry food and water.\nPaw cold response threshold: This test replicates the clinical test of cold pain perception threshold. Rats are transferred to a testing cage with a wire mesh bottom and allowed to acclimate. A rigid filament attached to a Peltier thermoelectric cooling system is used to stimulate the plantar surface of the hind paw for 5 seconds. The stimulus is repeated 10 times at 2 to 5 minute intervals and the number of paw withdrawal responses is recorded and converted to a response frequency (%). This paradigm is repeated at various stimulation temperatures.\nDosing procedures. Zucker Fatty Diabetic rats are found to develop hyperglycemia over 6-8 weeks. […] Upon confirmation of the presence of painful neuropathy, rats are tested for three measures of hyperalgesia: cold allodynia threshold, tactile hyperalgesia (von Frey filaments), and pressure responses measured by a mechanical von Frey device. All rats are tested in all three assays and all rats receive each of four (4) pre-treatments administered subcutaneously (s.c.) in a vehicle of 10% Trappsol in water. All rats receive treatments in the same order, as follows: vehicle, 1 mg/kg Compound of Ex. 1, 3 mg/kg Compound of Ex. 1, and 10 mg/kg Compound of Ex. 1. Rats receive pre-treatments 30 minutes prior to the start of testing. Hyperalgesia/allodynia measures are recorded from each rat at baseline (0 time), then 1, 2, 3, 4, and 6 h after treatment.\nAfter the completion of testing of all rats at all dose/conditions for each assay (cold, tactile, and pressure responses) rats are out-fitted with cannulas for intrathecal (i.t.) application of vehicle or Compound of Ex. 1 (1, 3 or 10 μg) directly to spinal cord. All rats are then re-tested in each of the tree assays at each of the 4 pretreatment conditions/doses."}, "ZFD rats [2]": {"tested_on": "ZFD rats", "test": "ZFD rat model, paw formalin test", "conditions": "s.c. or i.t., at the end of the study", "description": "Paw formalin test: This test enables discrimination of pain driven by primary afferent input (phase 1) versus spinal sensitization and amplifications of primary afferent input (phase 2). There is, however, no clinical equivalent to this test. The method used here is described in detail in Calcutt (2004), supra."}, "[3]": {"tested_on": "TH (tyrosine hydroxylase)", "test": "CNS phosphoprotein profile, TH", "conditions": "mice nucleus accumbens; Example 1 3 mg/kg at 30 or 60 minutes; haloperidol 2 mg/kg", "procedure": "(§1) A comprehensive molecular phosphorylation study is also carried out to examine the central nervous system (CNS) profile of the compound of Example 1. The extent of protein phosphorylation for selected key central nervous system proteins is measured in mice nucleus accumbens.\n(§2) Mice were killed 30 minutes to 2 hours post-injection by focused microwave cranial irradiation, which preserves brain phosphoprotein as it exists at the time of death. Nucleus accumbens was then dissected from each mouse brain, sliced and frozen in liquid nitrogen. Samples were further prepared for phosphoprotein analysis via SDS-PAGE electrophoresis followed by phosphoprotein-specific immunoblotting, as described in Zhu H, et al., Brain Res. 2010 Jun. 25; 1342:11-23. Phosphorylation at each site was quantified, normalized to total levels of the protein (non-phosphorylated), and expressed as percent of the level of phosphorylation in vehicle-treated control mice."}, "NR2B": {"tested_on": "NR2B", "test": "CNS phosphoprotein profile, NR2B", "conditions": "mice nucleus accumbens, 3 mg/kg, 30-60 minutes", "procedure": "as §1, §2"}}}
{"compound": "O=C1CN2c3c(cccc3[C@@H]3CN(CCCOc4ccc(F)cc4)CC[C@@H]32)N1", "note": "[Example 1, (6bR,10aS)-8-(3-(4-fluorophenoxy)propyl)-6b,7,8,9,10,10a-hexahydro-1H-pyrido[3′,4′:4,5]pyrrolo[1,2,3-de]quinoxalin-2(3H)-one]", "values": [{"measurement": "cold response frequency", "setting": "STZ-diabetic rats; 1 mg/kg s.c., 1 hour", "result": "~35", "unit": "%"}, {"measurement": "cold response frequency", "setting": "STZ-diabetic rats; 1 mg/kg s.c., 4 hours", "result": "about 70%"}, {"measurement": "cold response frequency", "setting": "STZ-diabetic rats; 1 mg/kg s.c., 6 hours", "result": "about 75%"}, {"measurement": "cold response frequency", "setting": "STZ-diabetic rats; 3 mg/kg s.c., 1 hour", "result": "about 10%"}, {"measurement": "cold response frequency", "setting": "STZ-diabetic rats; 3 mg/kg s.c., 4 hours", "result": "about 65%"}, {"measurement": "cold response frequency", "setting": "STZ-diabetic rats; 3 mg/kg s.c., 6 hours", "result": 75, "unit": "%"}, {"measurement": "cold response frequency", "setting": "STZ-diabetic rats; 10 mg/kg s.c., 1 hour", "result": "about 15%"}, {"measurement": "cold response frequency", "setting": "STZ-diabetic rats; 10 mg/kg s.c., 2 hours", "result": "about 10%"}, {"measurement": "cold response frequency", "setting": "STZ-diabetic rats; 10 mg/kg s.c., 4 hours", "result": "about 20%"}, {"measurement": "cold response frequency", "setting": "STZ-diabetic rats; 10 mg/kg s.c., 6 hours", "result": "about 40%"}, {"measurement": "Cold Test response frequency", "setting": "ZFD rats [1]; Control rats, 10 μg i.t., 0 hr", "result": 17, "unit": "%"}, {"measurement": "Cold Test response frequency", "setting": "ZFD rats [1]; Control rats, 10 μg i.t., 1 hr", "result": 11, "unit": "%"}, {"measurement": "Cold Test response frequency", "setting": "ZFD rats [1]; Control rats, 10 μg i.t., 2 hr", "result": 20, "unit": "%"}, {"measurement": "Cold Test response frequency", "setting": "ZFD rats [1]; Control rats, 10 μg i.t., 4 hr", "result": 14, "unit": "%"}, {"measurement": "Cold Test response frequency", "setting": "ZFD rats [1]; Control rats, 10 mg/kg s.c., 0 hr", "result": 16, "unit": "%"}, {"measurement": "Cold Test response frequency", "setting": "ZFD rats [1]; Control rats, 10 mg/kg s.c., 1 hr", "result": 18, "unit": "%"}, {"measurement": "Cold Test response frequency", "setting": "ZFD rats [1]; Control rats, 10 mg/kg s.c., 2 hr", "result": 10, "unit": "%"}, {"measurement": "Cold Test response frequency", "setting": "ZFD rats [1]; Control rats, 10 mg/kg s.c., 4 hr", "result": 10, "unit": "%"}, {"measurement": "Cold Test response frequency", "setting": "ZFD rats [1]; ZFD rats, 1 μg i.t., 0 hr", "result": 93, "unit": "%"}, {"measurement": "Cold Test response frequency", "setting": "ZFD rats [1]; ZFD rats, 1 μg i.t., 1 hr", "result": 90, "unit": "%"}, {"measurement": "Cold Test response frequency", "setting": "ZFD rats [1]; ZFD rats, 1 μg i.t., 2 hr", "result": 83, "unit": "%"}, {"measurement": "Cold Test response frequency", "setting": "ZFD rats [1]; ZFD rats, 1 μg i.t., 4 hr", "result": 83, "unit": "%"}, {"measurement": "Cold Test response frequency", "setting": "ZFD rats [1]; ZFD rats, 3 μg i.t., 0 hr", "result": 77, "unit": "%"}, {"measurement": "Cold Test response frequency", "setting": "ZFD rats [1]; ZFD rats, 3 μg i.t., 1 hr", "result": 37, "unit": "%"}, {"measurement": "Cold Test response frequency", "setting": "ZFD rats [1]; ZFD rats, 3 μg i.t., 2 hr", "result": 27, "unit": "%"}, {"measurement": "Cold Test response frequency", "setting": "ZFD rats [1]; ZFD rats, 3 μg i.t., 4 hr", "result": 70, "unit": "%"}, {"measurement": "Cold Test response frequency", "setting": "ZFD rats [1]; ZFD rats, 10 μg i.t., 0 hr", "result": 93, "unit": "%"}, {"measurement": "Cold Test response frequency", "setting": "ZFD rats [1]; ZFD rats, 10 μg i.t., 1 hr", "result": 33, "unit": "%"}, {"measurement": "Cold Test response frequency", "setting": "ZFD rats [1]; ZFD rats, 10 μg i.t., 2 hr", "result": 33, "unit": "%"}, {"measurement": "Cold Test response frequency", "setting": "ZFD rats [1]; ZFD rats, 10 μg i.t., 4 hr", "result": 77, "unit": "%"}, {"measurement": "Cold Test response frequency", "setting": "ZFD rats [1]; ZFD rats, 1 mg/kg s.c., 0 hr", "result": 88, "unit": "%"}, {"measurement": "Cold Test response frequency", "setting": "ZFD rats [1]; ZFD rats, 1 mg/kg s.c., 1 hr", "result": 96, "unit": "%"}, {"measurement": "Cold Test response frequency", "setting": "ZFD rats [1]; ZFD rats, 1 mg/kg s.c., 2 hr", "result": 94, "unit": "%"}, {"measurement": "Cold Test response frequency", "setting": "ZFD rats [1]; ZFD rats, 1 mg/kg s.c., 4 hr", "result": 86, "unit": "%"}, {"measurement": "Cold Test response frequency", "setting": "ZFD rats [1]; ZFD rats, 3 mg/kg s.c., 0 hr", "result": 88, "unit": "%"}, {"measurement": "Cold Test response frequency", "setting": "ZFD rats [1]; ZFD rats, 3 mg/kg s.c., 1 hr", "result": 32, "unit": "%"}, {"measurement": "Cold Test response frequency", "setting": "ZFD rats [1]; ZFD rats, 3 mg/kg s.c., 2 hr", "result": 26, "unit": "%"}, {"measurement": "Cold Test response frequency", "setting": "ZFD rats [1]; ZFD rats, 3 mg/kg s.c., 4 hr", "result": 90, "unit": "%"}, {"measurement": "Cold Test response frequency", "setting": "ZFD rats [1]; ZFD rats, 10 mg/kg s.c., 0 hr", "result": 90, "unit": "%"}, {"measurement": "Cold Test response frequency", "setting": "ZFD rats [1]; ZFD rats, 10 mg/kg s.c., 1 hr", "result": 28, "unit": "%"}, {"measurement": "Cold Test response frequency", "setting": "ZFD rats [1]; ZFD rats, 10 mg/kg s.c., 2 hr", "result": 16, "unit": "%"}, {"measurement": "Cold Test response frequency", "setting": "ZFD rats [1]; ZFD rats, 10 mg/kg s.c., 4 hr", "result": 48, "unit": "%"}, {"measurement": "pain responses in early or late phase of the formalin test", "setting": "ZFD rats [2]", "result": "no effect"}, {"measurement": "increase in TH phosphorylation at Ser40", "setting": "[3]", "result": "no significant effect"}, {"measurement": "NR2B phosphorylation at Tyr1472", "setting": "NR2B", "result": "no significant effect"}]}
